Patent publication US7566712B2, “Biaryl piperazinyl-pyridine analogues” (Neurogen Corporation, priority 2003, dated 2009)

Each compound was assayed against T1, human capsaicin receptor (Homo sapiens, UniProt Q8NER1) (assay: Calcium mobilization assay, determination of antagonist activity (Example 6)). Conditions: Table II; IC50 determined as described in Example 6.
T1 construct: pBK-CMV expression construct encoding the full length human capsaicin receptor; expressed in transfected cells
Format: cell-based
Procedure: A cDNA encoding full length human capsaicin receptor (SEQ ID NO: 1, 2 or 3 of U.S. Pat. No. 6,482,611) was subcloned in the plasmid pBK-CMV (Stratagene, La Jolla, Calif.) for recombinant expression in mammalian cells.
Human embryonic kidney (HEK293) cells were transfected with the pBK-CMV expression construct encoding the full length human capsaicin receptor using standard methods. The transfected cells were selected for two weeks in media containing G418 (400 μg/ml) to obtain a pool of stably transfected cells. Independent clones were isolated from this pool by limiting dilution to obtain clonal stable cell lines for use in subsequent experiments.
This Example illustrates representative calcium mobilization assays for use in evaluating test compounds for agonist and antagonist activity.
Cells transfected with expression plasmids (as described in Example 4) and thereby expressing human capsaicin receptor are seeded and grown to 70-90% confluency in FALCON black-walled, clear-bottomed 96-well plates (#3904, BECTON-DICKINSON, Franklin Lakes, N.J.). The culture medium is emptied from the 96 well plates and FLUO-3 AM calcium sensitive dye (Molecular Probes, Eugene, Oreg.) is added to each well (dye solution: 1 mg FLUO-3 AM, 440 μL DMSO and 440 pi 20% pluronic acid in DMSO, diluted 1:250 in Krebs-Ringer HEPES (KRH) buffer (25 mM HEPES, 5 mM KCl, 0.96 mM NaH2PO4, 1 mM MgSO4, 2 mM CaCl2, 5 mM glucose, 1 mM probenecid, pH 7.4), 50 μl diluted solution per well). Plates are covered with aluminum foil and incubated at 37° C. for 1-2 hours in an environment containing 5% CO2. After the incubation, the dye is emptied from the plates, and the cells are washed once with KRH buffer, and resuspended in KRH buffer.
To measure the ability of a test compound to agonize or antagonize a calcium mobilization response in cells expressing capsaicin receptors to capsaicin or other vanilloid agonist, the EC50 of the agonist capsaicin is first determined. An additional 20 μl of KRH buffer and 1 μl DMSO is added to each well of cells, prepared as described above. 100 μl capsaicin in KRH buffer is automatically transferred by the FLIPR instrument to each well. Capsaicin-induced calcium mobilization is monitored using either FLUOROSKAN ASCENT (Labsystems; Franklin, Mass.) or FLIPR (fluorometric imaging plate reader system; Molecular Devices, Sunnyvale, Calif.) instruments. Data obtained between 30 and 60 seconds after agonist application are used to generate an 8-point concentration response curve, with final capsaicin concentrations of 1 nM to 3 μM. KALEIDAGRAPH software (Synergy Software, Reading, Pa.) is used to fit the data to the equation: y=a*(1/(1+(b/x)^c)) to determine the 50% excitatory concentration (EC50) for the response. In this equation, y is the maximum fluorescence signal, x is the concentration of the agonist or antagonist (in this case, capsaicin), a is the Emax, b corresponds to the EC50 value and c is the Hill coefficient. Determination of Agonist Activity
Test compounds are dissolved in DMSO, diluted in 20 μl KRH buffer so that the final concentration of test compounds in the assay well is between 1 μM and 5 μM, and added to cells prepared as described above. The 96 well plates containing prepared cells and test compounds are incubated in the dark, at room temperature for 0.5 to 6 hours. It is important that the incubation not continue beyond 6 hours. Just prior to determining the fluorescence response, 100 pi capsaicin in KRH buffer at twice the EC50 concentration determined as described above is automatically added by the FLIPR instrument to each well of the 96 well plate for a final sample volume of 200 μl and a final capsaicin concentration equal to the EC50. The final concentration of test compounds in the assay wells is between 1 μM and 5 μM. […]

T1 sequence (Q8NER1 whole entry): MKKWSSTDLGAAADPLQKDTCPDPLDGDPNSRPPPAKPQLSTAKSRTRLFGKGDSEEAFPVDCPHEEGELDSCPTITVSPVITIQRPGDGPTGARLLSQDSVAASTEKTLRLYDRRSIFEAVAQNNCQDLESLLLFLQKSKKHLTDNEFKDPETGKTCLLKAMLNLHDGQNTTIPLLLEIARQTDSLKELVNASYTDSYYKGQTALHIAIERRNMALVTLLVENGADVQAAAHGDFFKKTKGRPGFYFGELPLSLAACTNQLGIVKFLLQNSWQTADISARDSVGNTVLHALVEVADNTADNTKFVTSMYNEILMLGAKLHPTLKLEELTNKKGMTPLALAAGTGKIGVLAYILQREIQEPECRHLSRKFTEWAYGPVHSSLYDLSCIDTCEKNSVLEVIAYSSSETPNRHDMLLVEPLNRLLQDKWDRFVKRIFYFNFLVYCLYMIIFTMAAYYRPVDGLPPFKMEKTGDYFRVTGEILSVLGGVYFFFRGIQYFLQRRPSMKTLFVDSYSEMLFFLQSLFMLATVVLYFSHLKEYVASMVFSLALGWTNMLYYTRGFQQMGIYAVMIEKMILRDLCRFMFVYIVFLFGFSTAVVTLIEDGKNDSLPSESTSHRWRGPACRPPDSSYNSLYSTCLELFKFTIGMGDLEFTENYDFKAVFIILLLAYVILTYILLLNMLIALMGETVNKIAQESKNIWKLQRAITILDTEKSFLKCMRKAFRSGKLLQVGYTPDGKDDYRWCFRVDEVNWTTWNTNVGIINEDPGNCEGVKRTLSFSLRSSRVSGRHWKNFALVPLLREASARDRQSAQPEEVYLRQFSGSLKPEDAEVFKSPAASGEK

IC50, ≤ 1 µM:
C=CCN1CCN(c2nc(-c3cccc(Cl)c3)nc(N3CCN(c4ncccc4C(F)(F)F)CC3)n2)CC1 [Example 441, 2-(4-allylpiperazin-1-yl)-4-(3-chlorophenyl)-6-{4-[3-(trifluoromethyl)pyridin-2-yl]piperazin-1-yl}-1,3,5-triazine]
CCCCN1CCN(c2nc(-c3cccc(Cl)c3)nc(N3CCN(c4ncccc4C(F)(F)F)CC3)n2)CC1 [Example 444, 2-(4-butylpiperazin-1-yl)-4-(3-chlorophenyl)-6-{4-[3-(trifluoromethyl)pyridin-2-yl]piperazin-1-yl}-1,3,5-triazine]
C=CCN1CCN(c2nc(-c3ccc(Cl)cc3)nc(N3CCN(c4ncccc4C(F)(F)F)CC3)n2)CC1 [Example 445, 2-(4-allylpiperazin-1-yl)-4-(4-chlorophenyl)-6-{4-[3-(trifluoromethyl)pyridin-2-yl]piperazin-1-yl}-1,3,5-triazine]
C=CCN1CCN(c2nc(-c3ccc(F)cc3)nc(N3CCN(c4ncccc4C(F)(F)F)CC3)n2)CC1 [Example 446, 2-(4-allylpiperazin-1-yl)-4-(4-fluorophenyl)-6-{4-[3-(trifluoromethyl)pyridin-2-yl]piperazin-1-yl}-1,3,5-triazine]
C=CCN1CCN(c2nc(-c3cccc(F)c3)nc(N3CCN(c4ncccc4C(F)(F)F)CC3)n2)CC1 [Example 448, 2-(4-allylpiperazin-1-yl)-4-(3-fluorophenyl)-6-{4-[3-(trifluoromethyl)pyridin-2-yl]piperazin-1-yl}-1,3,5-triazine]
C=CCN1CCN(c2nc(-c3ccc(F)c(C)c3)nc(N3CCN(c4ncccc4C(F)(F)F)CC3)n2)CC1 [Example 450, 2-(4-allylpiperazin-1-yl)-4-(4-fluoro-3-methylphenyl)-6-{4-[3-(trifluoromethyl)pyridin-2-yl]piperazin-1-yl}-1,3,5-triazine]
CCCCN1CCN(c2nc(-c3ccc(F)c(C)c3)nc(N3CCN(c4ncccc4C(F)(F)F)CC3)n2)CC1 [Example 452, 2-(4-butylpiperazin-1-yl)-4-(4-fluoro-3-methylphenyl)-6-{4-[3-(trifluoromethyl)pyridin-2-yl]piperazin-1-yl}-1,3,5-triazine]
C=CCN1CCN(c2nc(-c3cccc(C)c3)nc(N3CCN(c4ncccc4C(F)(F)F)CC3)n2)CC1 [Example 453, 2-(4-allylpiperazin-1-yl)-4-(3-methylphenyl)-6-{4-[3-(trifluoromethyl)pyridin-2-yl]piperazin-1-yl}-1,3,5-triazine]
C[C@@H]1CN(c2ncccc2C(F)(F)F)CCN1c1cc(-c2ccccc2)nc(N2CCOCC2)n1 [Example 478, 4-(4-{(2R)-2-methyl-4-[3-(trifluoromethyl)pyridin-2-yl]piperazin-1-yl}-6-phenylpyrimidin-2-yl)morpholine]
C[C@@H]1CN(c2ncccc2Cl)CCN1c1cc(-c2ccccc2)nc(N2CCOCC2)n1 [Example 479, 4-{4-[(2R)-4-(3-chloropyridin-2-yl)-2-methylpiperazin-1-yl]-6-phenylpyrimidin-2-yl}morpholine]
Cc1cccnc1N1CCN(c2cc(-c3cccc(Cl)c3)nc(N3CCOCC3)n2)[C@H](C)C1 [Example 480, 4-{4-(3-chlorophenyl)-6-[(2R)-2-methyl-4-(3-methylpyridin-2-yl)piperazin-1-yl]pyrimidin-2-yl}morpholine]
C[C@@H]1CN(c2ncccc2Cl)CCN1c1cc(-c2cccc(Cl)c2)nc(N2CCOCC2)n1 [Example 481, 4-{4-(3-chlorophenyl)-6-[(2R)-4-(3-chloropyridin-2-yl)-2-methylpiperazin-1-yl]pyrimidin-2-yl}morpholine]
C[C@@H]1CN(c2ncccc2C#N)CCN1c1cc(-c2ccc(Cl)cc2)nc(N2CCOCC2)n1 [Example 482, 2-{(3R)-4-[6-(4-chlorophenyl)-2-morpholin-4-ylpyrimidin-4-yl]-3-methylpiperazin-1-yl}nicotinonitrile]
Cc1cccnc1N1CCN(c2cc(-c3ccc(Cl)cc3)nc(N3CCOCC3)n2)[C@H](C)C1 [Example 483, 4-{4-(4-chlorophenyl)-6-[(2R)-2-methyl-4-(3-methylpyridin-2-yl)piperazin-1-yl]pyrimidin-2-yl}morpholine]
C[C@@H]1CN(c2ncccc2C(F)(F)F)CCN1c1cc(-c2ccc(Cl)cc2)nc(N2CCOCC2)n1 [Example 484, 4-(4-(4-chlorophenyl)-6-{(2R)-2-methyl-4-[3-(trifluoromethyl)pyridin-2-yl]piperazin-1-yl}pyrimidin-2-yl)morpholine]
C[C@@H]1CN(c2ncccc2Cl)CCN1c1cc(-c2ccc(Cl)cc2)nc(N2CCOCC2)n1 [Example 485, 4-{4-(4-chlorophenyl)-6-[(2R)-4-(3-chloropyridin-2-yl)-2-methylpiperazin-1-yl]pyrimidin-2-yl}morpholine]
C[C@@H]1CN(c2ncccc2C#N)CCN1c1cc(-c2ccc(F)cc2)nc(N2CCOCC2)n1 [Example 486, 2-{(3R)-4-[6-(4-fluorophenyl)-2-morpholin-4-ylpyrimidin-4-yl]-3-methylpiperazin-1-yl}nicotinonitrile]
C[C@@H]1CN(c2ncccc2Cl)CCN1c1cc(-c2ccc(F)cc2)nc(N2CCOCC2)n1 [Example 487, 4-[4-[(2R)-4-(3-chloropyridin-2-yl)-2-methylpiperazin-1-yl]-6-(4-fluorophenyl)pyrimidin-2-yl]morpholine]
C[C@@H]1CN(c2ncccc2Cl)CCN1c1cc(-c2cccc(F)c2)nc(N2CCOCC2)n1 [Example 488, 4-[4-[(2R)-4-(3-chloropyridin-2-yl)-2-methylpiperazin-1-yl]-6-(3-fluorophenyl)pyrimidin-2-yl]morpholine]
C[C@@H]1CN(c2ncccc2C#N)CCN1c1cc(-c2ccc3ccccc3c2)nc(N2CCOCC2)n1 [Example 489, 2-{(3R)-3-methyl-4-[2-morpholin-4-yl-6-(2-naphthyl)pyrimidin-4-yl]piperazin-1-yl}nicotinonitrile]
Cc1cccnc1N1CCN(c2cc(-c3ccc4ccccc4c3)nc(N3CCOCC3)n2)[C@H](C)C1 [Example 490, 4-[4-[(2R)-2-methyl-4-(3-methylpyridin-2-yl)piperazin-1-yl]-6-(2-naphthyl)pyrimidin-2-yl]morpholine]
C[C@@H]1CN(c2ncccc2C(F)(F)F)CCN1c1cc(-c2ccc3ccccc3c2)nc(N2CCOCC2)n1 [Example 491, 4-[4-{(2R)-2-methyl-4-[3-(trifluoromethyl)pyridin-2-yl]piperazin-1-yl}-6-(2-naphthyl)pyrimidin-2-yl]morpholine]
C[C@@H]1CN(c2ncccc2Cl)CCN1c1cc(-c2ccc3ccccc3c2)nc(N2CCOCC2)n1 [Example 492, 4-[4-[(2R)-4-(3-chloropyridin-2-yl)-2-methylpiperazin-1-yl]-6-(2-naphthyl)pyrimidin-2-yl]morpholine]
Cc1ccc(-c2cc(N3CCN(c4ncccc4C#N)C[C@H]3C)nc(N3CCOCC3)n2)cc1F [Example 493, 2-{(3R)-4-[6-(3-fluoro-4-methylphenyl)-2-morpholin-4-ylpyrimidin-4-yl]-3-methylpiperazin-1-yl}nicotinonitrile]
Cc1ccc(-c2cc(N3CCN(c4ncccc4C)C[C@H]3C)nc(N3CCOCC3)n2)cc1F [Example 494, 4-{4-(3-fluoro-4-methylphenyl)-6-[(2R)-2-methyl-4-(3-methylpyridin-2-yl)piperazin-1-yl]pyrimidin-2-yl}morpholine]
